Measured values from BigSolDB 2.1.

NC(=O)c1cnccn1
solubility (mole fraction)
Details | 283.15 K | 293.15 K | 303.15 K | 313.15 K | 323.15 K | 333.15 K
in 1,4-dioxane | – | 0.0072 | 0.0107 | 0.0138 | 0.0202 | 0.0285
in acetone | 0.00244 | 0.00386 | 0.00583 | 0.00768 | 0.0116 | –
in methanol | 0.00268 | 0.00398 | 0.00586 | 0.0086 | 0.0122 | –
